From patent US20240124456A1, “AZA-ERGOLINE DERIVATIVE AND PREPARATION METHOD THEREFOR AND APPLICATION THEREOF” (SHANGHAITECH UNIVERSITY, priority 2021, published 2024)
Read-outs that look alike come from different tables or passages of the source.

Tests used:
Type in all cases: in vivo
[1] = Brain permeability in C57 male mice (plasma and brain tissue concentration); details: mouse; for Kp at 0.5 h / Kp at 2 h: brain/plasma; for Kp at 0.5 h: read-out: Brain/blood concentration ratio at 0.5 h; for Kp at 2 h: read-out: Brain/blood concentration ratio at 2.0 h
Procedure: • 2. Test of the brain permeability of compound (−)-I-10 administered to C57 male mice by single intragastric administration, intraperitoneal injection and intravenous injection
Using the same method as the pharmacokinetic experiment, 0.030 mL of blood was taken from each animal through the orbit at 0.5 and 2.0 hours, respectively, and anticoagulated with EDTA-K2. Blood samples were placed on ice after collection, and the plasma was separated by centrifugation within 30 minutes (centrifugation conditions: 5000 rpm, 10 minutes, 4° C.) and stored at −80° C. until analysis. After the animal was euthanized by bloodletting, the brain tissue samples were taken, homogenized with 50% methanol according to the body weight of 1:3 (m/v=1:3), and stored at −80° C. before homogenate analysis. The drug concentrations in plasma and brain tissue were analyzed by LC/MS/MS and compared.

C57B6 male mice [2] = experiment: Tail suspension experiment after 5 h restraint (depression-like behavior); details: for Immobility time, tail suspension experiment: restraint for five hours
Procedure: (§1) The experimental animals were C57B6 male mice, n=8 in each group. Firstly, the C57B6 mice were induced to develop depression-related behavioral representations by restraining the mice for 5 hours, and then the effects of the compounds on their “depression-like” behaviors were determined by tail suspension and forced swimming experiments. The specific experimental procedure was as follows. First, the mice were restrained using a mouse fixator for tail vein injection. During the restraint process, all behavioral abilities of the mice were restricted under the condition of ensuring minimal pain to the mice. The mice were administered intraperitoneally once before and after restraint, respectively. After the restraint, the mice returned to the cage to recover for 30 minutes. After the 30 minutes, the mice in different groups were subjected to tail suspension or forced swimming to detect their “depression-like” behavior, respectively.
Tail suspension experiment: the tip of the tail of the mouse was fixed on the suspension rod of the iron stand by adhesive tape, and the mouse remained in the hanging position for 6 minutes. The first 2 minutes was the adaptation period, and no data collection was performed, and the time of the intermittent immobility behavior of the mouse was recorded in the next 4 minutes. The duration of this immobility state was used to measure the degree of behavioral despair in the mouse. Data statistics were carried out using Student-t-test, p<0.05 was *, p<0.01 was **, p<0.001 was ***, p<0.0001 was ****.

C57B6 male mice [3] = experiment: Morris water maze, MK801 recognition impairment model; details: for Platform exploration time / Times of crossing platform area: MK801 model; for Times of crossing platform area: probe trial
Procedure: The experimental animals were C57B6 male mice, n=8 in each group. Firstly, mice were intraperitoneally injected with 0.2 mg/kg of MK801 twice a day for ten consecutive days to establish a recognition impairment model, and control mice were intraperitoneally injected with normal saline containing the same amount of DMSO, and then the mice were subjected to the Morris water maze test.
Experimental setup: Experiments were conducted in a blue circular water reservoir with a diameter of 130 cm. The reservoir was filled with pure water about 30 cm deep. The reservoir was divided into 4 fan-shaped areas by a cross, and the escape platform (6 cm in diameter) was located in the center of one of the fan-shaped areas and was hidden 0.5 cm below the water surface. The position where the mice entered the water was fixed at the edges of the other three fan-shaped areas. The position where the mice entered the water was basically consistent with the straight-line distance of the platform.
Acquisition phase: 30 minutes before the start of the experiment, the mice were administered intraperitoneally. After the experiment started, the mouse was put into the water with its head facing the reservoir wall, and the placement position was randomly selected from one of the three starting positions in the east, west, and south, and the underwater hidden platform was located in the north quadrant. The time taken by the mouse to find the underwater platform was recorded. […] Then the above steps were repeated 2 times at another starting position. Each animal was trained three times a day for 5 consecutive days.
Probe trial: on the second day after the last acquisition phase, the platform was removed and a 60-second probe trial began. The animal was placed in the water from the opposite side of the original platform quadrant. The number of times the animal crossed the original platform location was recorded as a detection index of spatial memory. Data statistics were carried out using Student-t-test, p<0.05 was *, p<0.01 was **, p<0.001 was ***, p<0.0001 was ****.

C57B6 male mice [4] = experiment: Forced swimming experiment after 5 h restraint (depression-like behavior); details: restraint for five hours
Procedure: as §1
Forced swimming experiment: the mouse was placed in a 5 L glass beaker filled with water, the water surface height was 15 cm, and the mouse needed to swim continuously in the beaker for 6 minutes. The first two minutes was the adaptation period and no data collection was performed. The time of the intermittent immobility behavior of the mouse was recorded in the next four minutes, and the immobility behavior of the mouse was defined as: the mouse float passively on the surface of the water without movement, with only small local movements required to maintain afloat. The duration of this immobility state was used to measure the degree of behavioral despair in the mouse. Data statistics were carried out using Student-t-test, p<0.05 was *, p<0.01 was **, p<0.001 was ***, p<0.0001 was ****. The results of statistical data of restrained and unrestrained mouse tail suspension experiment and forced swimming experiment are shown in Table 8.

[5] = ip, intraperitoneal injection 1 mg/kg

Molecule `CN(C)C(=O)N[C@H]1CC[C@H](CCN2CCN3c4cccc5[nH]cc(c45)C[C@H]3C2)CC1` [(−)-I-10] has a concentration at 0.5 h ([1]; brain, intravenous injection 1 mg/kg, read-out: Drug concentration at 0.5 h in brain) of 219 ± 21 ng/mL, a concentration at 2 h ([1]; brain, intravenous injection 1 mg/kg, read-out: Drug concentration at 2.0 h in brain) of 77 ± 7 ng/mL and a concentration at 0.5 h ([1]; brain, ip, intraperitoneal injection 1 mg/kg, read-out: Drug concentration at 0.5 h in brain) of 193 ± 13 ng/mL. The concentration at 2 h ([1]; brain, ip, intraperitoneal injection 1 mg/kg, read-out: Drug concentration at 2.0 h in brain) was 42.7 ± 4 ng/mL, the concentration at 0.5 h ([1]; brain, oral administration 5 mg/kg, read-out: Drug concentration at 0.5 h in brain) was 346 ± 217 ng/mL and the concentration at 2 h ([1]; brain, oral administration 5 mg/kg, read-out: Drug concentration at 2.0 h in brain) was 169 ± 23 ng/mL. The Kp at 0.5 h ([1]; intravenous injection 1 mg/kg) was 1.65, the Kp at 2 h ([1]; intravenous injection 1 mg/kg) was 3.09 and the Kp at 0.5 h [1, 5] was 1.56. For the same molecule, the Kp at 2 h [1, 5] was 3.1, the Kp at 0.5 h ([1]; oral administration 5 mg/kg) was 1.5 and the Kp at 2 h ([1]; oral administration 5 mg/kg) was 1.78. The concentration at 0.5 h ([1]; plasma, intravenous injection 1 mg/kg, read-out: Drug concentration at 0.5 h in plasma) was 133 ± 19 ng/mL, the concentration at 2 h ([1]; plasma, intravenous injection 1 mg/kg, read-out: Drug concentration at 2.0 h in plasma) was 24.9 ± 5 ng/mL and the concentration at 0.5 h ([1]; plasma, ip, intraperitoneal injection 1 mg/kg, read-out: Drug concentration at 0.5 h in plasma) was 124 ± 15 ng/mL. It also gave a concentration at 2 h ([1]; plasma, ip, intraperitoneal injection 1 mg/kg, read-out: Drug concentration at 2.0 h in plasma) of 13.8 ± 2.7 ng/mL, a concentration at 0.5 h ([1]; plasma, oral administration 5 mg/kg, read-out: Drug concentration at 0.5 h in plasma) of 231 ± 153 ng/mL and a concentration at 2 h ([1]; plasma, oral administration 5 mg/kg, read-out: Drug concentration at 2.0 h in plasma) of 95 ± 16 ng/mL. For the same molecule, the “inhibition of restraint-induced depression-like behavior (in words)” value (C57B6 male mice [2]; 0.4 mg/kg and 0.1 mg/kg, tail suspension and forced swimming) was “significantly inhibit”, the “Immobility time, tail suspension experiment” value (C57B6 male mice [2]; 0.00625 mg/kg intraperitoneal) was 132.6 s and the “Immobility time, tail suspension experiment” value (C57B6 male mice [2]; 0.025 mg/kg intraperitoneal) was 101.8 s. The “Immobility time, tail suspension experiment” value (C57B6 male mice [2]; 0.1 mg/kg intraperitoneal) was 90.31 s, the “Immobility time, tail suspension experiment” value (C57B6 male mice [2]; 0.4 mg/kg intraperitoneal) was 72.66 s and the “improvement of MK801-induced spatial recognition impairment (in words)” value (C57B6 male mice [3]; 0.1 mg/kg) was “significantly improve”. The “improvement of MK801-induced memory impairment (in words)” value (C57B6 male mice [3]; 0.1 mg/kg and 0.025 mg/kg) was “significantly improve”, the Platform exploration time (C57B6 male mice [3]; fifth day, 0.00625 mg/kg) was 97.94 s and the Platform exploration time (C57B6 male mice [3]; fifth day, 0.025 mg/kg) was 92.23 s. It also gave a Platform exploration time (C57B6 male mice [3]; fifth day, 0.1 mg/kg) of 62.86 s, a Platform exploration time (C57B6 male mice [3]; first day, 0.00625 mg/kg) of 173.0 s and a Platform exploration time (C57B6 male mice [3]; first day, 0.025 mg/kg) of 161.2 s. For the same molecule, the Platform exploration time (C57B6 male mice [3]; first day, 0.1 mg/kg) was 146.2 s, the Platform exploration time (C57B6 male mice [3]; fourth day, 0.00625 mg/kg) was 87.77 s and the Platform exploration time (C57B6 male mice [3]; fourth day, 0.025 mg/kg) was 96.66 s. For the same molecule, the Platform exploration time (C57B6 male mice [3]; fourth day, 0.1 mg/kg) was 68.62 s, the “Times of crossing platform area” value (C57B6 male mice [3]; 0.00625 mg/kg) was 2.600 and the “Times of crossing platform area” value (C57B6 male mice [3]; 0.025 mg/kg) was 4.500. For the same molecule, the “Times of crossing platform area” value (C57B6 male mice [3]; 0.1 mg/kg) was 5.800, the Platform exploration time (C57B6 male mice [3]; second day, 0.00625 mg/kg) was 145.3 s and the Platform exploration time (C57B6 male mice [3]; second day, 0.025 mg/kg) was 154.0 s. The Platform exploration time (C57B6 male mice [3]; second day, 0.1 mg/kg) was 128.5 s, the Platform exploration time (C57B6 male mice [3]; third day, 0.00625 mg/kg) was 108.1 s and the Platform exploration time (C57B6 male mice [3]; third day, 0.025 mg/kg) was 96.66 s. For the same molecule, the Platform exploration time (C57B6 male mice [3]; third day, 0.1 mg/kg) was 88.38 s, the “Immobility time, forced swimming experiment” value (C57B6 male mice [4]; 0.00625 mg/kg intraperitoneal) was 76.09 s and the “Immobility time, forced swimming experiment” value (C57B6 male mice [4]; 0.025 mg/kg intraperitoneal) was 56.59 s. For the same molecule, the “Immobility time, forced swimming experiment” value (C57B6 male mice [4]; 0.1 mg/kg intraperitoneal) was 42.76 s and the “Immobility time, forced swimming experiment” value (C57B6 male mice [4]; 0.4 mg/kg intraperitoneal) was 22.40 s.
